Where “and” joins values, the source holds several entries; their conditions need not be identical. Equal entries are not always repeated.
Experiments:
IGROV-1 = test: Cytotoxicity (PrestoBlue), ovarian cancer line; format: cell-based; details: IGROV-1, 72 h incubation
Protocol: (§1) OVCAR-3 (OVC-3) and OVCAR-8 (OVC-8) ovarian serous adenocarcinomas, IGROV-1 ovarian endometrioid adenocarcinoma, OVCAR-5 (OVC-5) upper gastrointestinal carcinoma, MDA-MB-231 breast adenocarcinoma, and MCF-7 and T-47D invasive breast carcinomas were purchased from the Developmental Therapeutic Program of the National Cancer Institute (NIH, USA) and were cultured in an RPMI medium (Thermo Fisher). Mes-Sa and Mes-Sa/Dx5 uterine sarcoma cell lines were purchased from American Type Culture Collection (ATCC) and were kept in DMEM (Thermo Fisher). Mes-Sa B1 was transfected with the human MDR1 gene, and Mes-Sa mCherry, Mes-Sa B1 mOrange, and Mes-Sa/Dx5 eGFP were engineered to stably express the respective fluorescent proteins previously.[51] Culture media for cancer cells were supplemented with 10% fetal bovine serum, 2 mM L-glutamine, and 100 units/mL penicillin and 100 μg/mL streptomycin (Thermo Fisher). The adipose tissue and bone marrow-derived mesenchymal stem cells (AD-MSC and BM-MSC) were described previously[37] and were kept in DMEM-F12 (Gibco) supplemented with 10% fetal bovine serum, L-glutamine (Thermo Fisher), 0.1% gentamicin (Gibco, 50 mg/mL), and 16 ng/mL fibroblast growth factor 2 (Peprotech). Cells were kept at 37 °C under 5% CO2 and were negative for mycoplasma infection.
(§2) Cytotoxicities of the nonfluorescent cancer cells were assessed with a PrestoBlue cell viability reagent (Thermo Fisher). Briefly, 2500 cells/well were seeded on 384-well plates; then, the next-day drugs were added. After 72 h of incubation, PrestoBlue was added in a 10% final concentration, and after an hour of additional incubation, plates were measured with a PerkinElmer EnSpire plate reader at 555 nm/585 nm excitation/emission wavelengths. Stem cells were seeded on 96-well plates at a density of 5000 cells/well, and the following day, drugs were added for 96 h of incubation; then, viability was assessed with 10% PrestoBlue diluted in PBS. Fluorescent cancer cells were admixed before seeding on 384-well plates at an 800 cells/well density each, thus altogether 2400 cells/well. Drugs were added the following day, and the intensity of the fluorescent proteins was measured after 144 h of incubation at the respective fluorescent channels (excitation/emission, eGFP: 485 nm/510 nm; mCherry: 585 nm/610 nm; mOrange: 545 nm/567 nm). pIC50 values were calculated by a custom program written by Judit Sessler in C#. IC50 values and standard deviation were calculated from average pIC50 values from at least 3 independent measurements.

OVC-3 = test: Cytotoxicity (PrestoBlue), ovarian cancer line; format: cell-based; details: OVC-3, 72 h incubation
Protocol: as §1, §2

OVC-8 = test: Cytotoxicity (PrestoBlue), ovarian cancer line; format: cell-based; details: OVC-8, 72 h incubation
Protocol: as §1, §2

OVC-5 = test: Cytotoxicity (PrestoBlue), upper gastrointestinal cancer line; format: cell-based; details: for IC50: OVC-5, 72 h incubation, PrestoBlue
Protocol: as §1, §2

MCF-7 [1] = test: Cytotoxicity (PrestoBlue), breast cancer line; format: cell-based; details: MCF-7, 72 h incubation
Protocol: as §1, §2

MDA-MB-231 = test: Cytotoxicity (PrestoBlue), breast cancer line; format: cell-based; details: MDA-MB-231, 72 h incubation
Protocol: as §1, §2

T-47D [2] = test: Cytotoxicity (PrestoBlue), breast cancer line; format: cell-based; details: 72 h incubation
Protocol: as §1, §2

Mes-Sa [3] = test: Cytotoxicity, uterine sarcoma parental line; format: cell-based; details: fluorescent protein intensity after 144 h
Protocol: as §1, §2

Mes-Sa B1 = test: Cytotoxicity, MDR1-transfected uterine sarcoma line; format: cell-based; details: Mes-Sa B1 (MDR1 transfected, ABCB1 expressing), fluorescent protein intensity after 144 h
Protocol: as §1, §2

Mes-Sa/Dx5 = test: Cytotoxicity, doxorubicin-selected MDR uterine sarcoma line; format: cell-based; details: Mes-Sa/Dx5 (doxorubicin selected, ABCB1 expressing), fluorescent protein intensity after 144 h
Protocol: as §1, §2

AD-MSC = test: Cytotoxicity (PrestoBlue), adipose-derived mesenchymal stem cells; format: cell-based; details: 96 h incubation
Protocol: as §1, §2

BM-MSC = test: Cytotoxicity (PrestoBlue), bone marrow-derived mesenchymal stem cells; format: cell-based; details: 96 h incubation
Protocol: as §1, §2

im. BM-MSC = test: Cytotoxicity (PrestoBlue), immortalized bone marrow MSC; format: cell-based; details: 96 h incubation
Protocol: as §1, §2

[4] = tested on: Bone marrow MSCs (BM-MSC); test: Cytotoxicity, range over bone marrow MSCs; format: cell-based; details: BM-MSC and immortalized BM-MSC
Protocol: as §1, §2

MCF-7 [5] = test: H2DCFDA intracellular ROS production assay; format: cell-based; details: MCF-7, 50 μM, 4 h incubation
Protocol: (§3) To assess intracellular ROS production, we used a H2DCFDA cellular ROS assay kit (ab113851, Abcam) according to the manufacturer’s instructions. Briefly, 20,000 cells were seeded on 96-well plates. On the following day, cells were washed, and H2DCFDA solution, prepared by avoiding direct light, was added for 45 min. Next, cells were washed, and 50 μM samples of test compounds were aspirated on the cells in a complete and phenol red-free medium (FluoroBrite, Thermo Fisher). At each hour, fluorescence of 2′,7′-dichlorofluorescein (DCF) was measured at 484 nm/535 nm excitation/emission wavelengths. Values were normalized to 0 h measurements. Values indicate at least 3 independent measurements.

Mes-Sa [6] = test: H2DCFDA intracellular ROS production assay; format: cell-based; details: 50 μM, 4 h incubation
Protocol: as §3

T-47D [7] = test: H2DCFDA intracellular ROS production assay; format: cell-based; details: 50 μM, 4 h incubation
Protocol: as §3

[8] = Stability in serum-free culture medium by HPLC-UV; format: physicochemical; details: for AUC (HPLC-UV), single measurements 1-5 / AUC (HPLC-UV), average: serum-free culture medium; for Stability in serum-free culture medium: HPLC-UV, observed 48 h
Protocol: Stability of the metal complexes in solution was measured in serum-free culture medium. The compounds were dissolved in DMSO right before the experiment. Solutions of Cu-LA and Ag-LA contained 1% final volume of DMSO, while Au-LA contained 30% DMSO. Samples were taken right after dilution, and after 1 h, 2 h, 4 h, 8 h, 16 h, 32 and 48 h, and measured by HPLC-UV.

HL-60 leukemia line = tested on: HL-60 leukemia line; set-up: method as in PMID 34808062; details: cited from earlier work
[9] = tested on: 3 breast cancer cell lines (MDA-MB-231, MCF-7 and T-47D); test: Cytotoxicity, range over 3 breast cancer cell lines; format: cell-based; details: MDA-MB-231, MCF-7, T-47D
Protocol: as §1, §2

[10] = tested on: 3 ovarium cancer lines (IGROV-1, OVC-3, and OVC-8); test: Cytotoxicity, range over 3 ovarium cancer lines; format: cell-based; details: IGROV-1, OVC-3, OVC-8
Protocol: as §1, §2

[11] = 0 h, Cu-LA, Ag-LA 1% DMSO, Au-LA 30% DMSO

Row | Structure (SMILES) | IC50 (IGROV-1) [µM] | IC50 (OVC-3) [µM] | IC50 (OVC-8) [µM] | IC50 (OVC-5) [µM] | IC50 (MCF-7 [1]) [µM] | IC50 (MDA-MB-231) [µM] | IC50 (T-47D [2]) [µM] | IC50 (Mes-Sa [3]) [µM] | IC50 (Mes-Sa B1) [µM] | IC50 (Mes-Sa/Dx5) [µM] | IC50 (AD-MSC) [µM] | IC50 (BM-MSC) [µM] | IC50 (im. BM-MSC) [µM] | IC50 [4] [µM] | AUC (HPLC-UV), single measurements 1-5 ([8]; 0 h) | AUC (HPLC-UV), average [8, 11] | AUC (HPLC-UV), average ([8]; 1 h) | AUC (HPLC-UV), single measurements 1-5 ([8]; 1 h) | AUC (HPLC-UV), average ([8]; 2 h) | AUC (HPLC-UV), single measurements 1-5 ([8]; 2 h) | also measured
1 | Cc1c(C)n(Cc2ccccc2)[c](=[Cu][Cl])n1Cc1ccccc1 [Cu-LA, Chloro-(1,3-dibenzyl-4,5-dimethyl-imidazol-2-ylidene)copper] | 72.9 | 58.5 | 67.6 | 104 | 41.3 | 62.5 | 24.8 | 18.5 | > 100 | 76.6 | 23.7 | 98.3 | 75.4 | 48 to 98 | 1030 and 1011 and 1021 and 1023 and 1047 | 1026 | 1019 | 1022 and 1016 and 1021 and 1017 | 1022 | 1021 and 1020 and 1022 and 1023 | Higher intracellular ROS formation (MCF-7 [5]; vs medium): 2–3 fold; Higher intracellular ROS formation (Mes-Sa [6]; vs medium): 2–3 fold; Higher intracellular ROS formation (T-47D [7]; vs medium): 2–3 fold; AUC (HPLC-UV), average ([8]; 4 h): 1042; AUC (HPLC-UV), single measurements 1-5 ([8]; 4 h): 1040 and 1041 and 1043 and 1044; AUC (HPLC-UV), average ([8]; 8 h): 1044; AUC (HPLC-UV), single measurements 1-5 ([8]; 8 h): 1045 and 1042 and 1044 and 1046; AUC (HPLC-UV), average ([8]; 16 h): 1042; AUC (HPLC-UV), single measurements 1-5 ([8]; 16 h): 1039 and 1042 and 1046; AUC (HPLC-UV), average ([8]; 32 h): 1038; AUC (HPLC-UV), single measurements 1-5 ([8]; 32 h): 1030 and 1041 and 1038 and 1042 and 1039; AUC (HPLC-UV), average ([8]; 48 h): 1039; AUC (HPLC-UV), single measurements 1-5 ([8]; 48 h): 1038 and 1039 and 1040; Stability in serum-free culture medium [8]: stable
2 | COc1cccc(C[n+]2c(C)c(C)n(Cc3ccccc3)c2C)c1 [lepidiline D] | – | – | – | – | – | – | – | – | – | – | – | – | – | – | – | – | – | – | – | – | IC50 (HL-60 leukemia line): 1.1 µM
3 | N.N.[Cl][Pt][Cl] [Cisplatin, cisplatin, reference compound] | 2.19 | 6.64 | 6.34 | 7 | 2.71 | 2.17 | 5.99 | 1.84 | 2.09 | 4.71 | 16.7 | 2.32 | 1.97 | 2 to 2.3 | – | – | – | – | – | – | IC50 [9]: 2.2 to 6 µM
4 | Cc1c(C)n(Cc2ccccc2)[c](=[Ag][Cl])n1Cc1ccccc1 [Ag-LA, Chloro-(1,3-dibenzyl-4,5-dimethyl-imidazol-2-ylidene)silver] | 15 | 16.3 | 17.4 | 40.7 | 10.9 | 12 | 5.83 | 7.9 | 20.5 | 12 | 15.6 | 15.7 | 13.6 | 5.7 to 15.7 | 898 and 911 and 926 and 921 and 877 | 907 | 922 | 923 and 921 and 920 | 923 | 922 and 921 and 923 and 928 | Lower susceptibility of OVC-5 compared to the ovarian cancer lines (OVC-5; OVC-5 vs ovarian cancer lines): 2.5 fold; IC50 [10]: 10.5 to 17.4 µM; IC50 [9]: 5.8 to 12 µM; More ROS compared to the medium (MCF-7 [5]): ~30%; More ROS compared to the medium (Mes-Sa [6]): ~50%; Intracellular ROS production compared to the medium (T-47D [7]): ROS was not elevated; AUC (HPLC-UV), average ([8]; 4 h): 924; AUC (HPLC-UV), single measurements 1-5 ([8]; 4 h): 921 and 925 and 927 and 920 and 928; AUC (HPLC-UV), average ([8]; 8 h): 923; AUC (HPLC-UV), single measurements 1-5 ([8]; 8 h): 922 and 924 and 923; AUC (HPLC-UV), average ([8]; 16 h): 922; AUC (HPLC-UV), single measurements 1-5 ([8]; 16 h): 921 and 922; AUC (HPLC-UV), average ([8]; 32 h): 925; AUC (HPLC-UV), single measurements 1-5 ([8]; 32 h): 925 and 926 and 924; AUC (HPLC-UV), average ([8]; 48 h): 921; AUC (HPLC-UV), single measurements 1-5 ([8]; 48 h): 917 and 922 and 920; Stability in serum-free culture medium [8]: stable
5 | COc1cc([C@@H]2c3cc4c(cc3[C@@H](O[C@@H]3O[C@@H]5CO[C@@H](C)O[C@H]5[C@H](O)[C@H]3O)[C@H]3COC(=O)[C@H]23)OCO4)cc(OC)c1O [Etoposide, etoposide, reference compound] | – | – | – | – | – | – | – | – | – | – | – | – | – | – | – | – | – | – | – | – | IC50 (Mes-Sa [3]; Homo sapiens): 0.26 µM; IC50 (Mes-Sa B1; Homo sapiens): 1.17 µM; IC50 (Mes-Sa/Dx5; Homo sapiens, MES-SA/Dx5, 144 h): 1.7 µM

Source: paper PMC11270681, “Synthesis and Systematic Investigation of Lepidiline A and Its Gold(I), Silver(I), and Copper(I) Complexes Using In Vitro Cancer Models and Multipotent Stem Cells” (ACS Omega, 2024)
